20 molecules from patent US20100119599A1 (ARCHER PHARMACEUTICALS, INC., priority 2006, published 2010) can be followed below.

The subject of one assay is Aβ1-40. Briefly: Measurement of Aβ1-40 in culture medium of 7W WT APP751 CHO cells by ELISA. The assay is classed as cell-based, Chinese hamster. To be noted: Cricetulus griseus; Table 1; 5 μM test compound; CHO cells stably transfected with human APP751; culture medium, ELISA; control DMSO; 0 = no detectable amount. (In an ELISA, binding on a coated surface is turned into a signal by an enzyme label.)

In another assay the test system is Aβ1-42. The assay is described as follows: Measurement of Aβ1-42 in culture medium of 7W WT APP751 CHO cells by ELISA. The class given is cell-based, Chinese hamster. To be noted: Cricetulus griseus; Table 1; 5 μM test compound; CHO cells stably transfected with human APP751; culture medium, ELISA; control DMSO; 0 = no detectable amount; read-out: Aβ1-42 (% of control).
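Also: 5 µM test compound but RI-coded compounds at 10 µM for 24 hours.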

On to `CCc1ccc(C2C(C(=O)OCc3ccc(OC)cc3)=C(C)NC3=C2C(=O)CCC3)cc1` (stereo not shown) [ST016983, (4-methoxyphenyl)methyl 4-(4-ethylphenyl)-2-methyl-5-oxo-1,4,6,7,8-pentahydroquinoline-3-carboxylate], for which the activity at 5 µM in the assay with Aβ1-40 was found to be 51.6%; with Aβ1-42 it was 72.6%.

For `CCCOc1ccccc1C1C(C(=O)OCC(C)C)=C(C)NC2=C1C(=O)CC(c1ccccc1)C2` (stereo not shown) [ST016984, 2-methylpropyl 2-methyl-5-oxo-7-phenyl-4-(2-propoxyphenyl)-1,4,6,7,8-pentahydroquinoline-3-carboxylate], the activity at 5 µM in the assay on Aβ1-40 turned out to be 25.4%; in the assay on Aβ1-42, 56.2%.

As to `COC(=O)C1=C(C)NC2=C(C(=O)CC(c3ccc(OC)cc3)C2)C1c1cccc(OC)c1OC` (stereo not shown) [ST016999, methyl 4-(2,3-dimethoxyphenyl)-7-(4-methoxyphenyl)-2-methyl-5-oxo-1,4,6,7,8-pentahydroquinoline-3-carboxylate], the activity at 5 µM with Aβ1-40 came out at 67.3%; with Aβ1-42, 82.8%.

As to `CCOc1ccc(C2C(C(=O)OC(C)C)=C(C)NC3=C2C(=O)CC(c2ccc(OC)cc2)C3)cc1` (stereo not shown) [ST017011, methylethyl 4-(4-ethoxyphenyl)-7-(4-methoxyphenyl)-2-methyl-5-oxo-1,4,6,7,8-pentahydroquinoline-3-carboxylate], the activity at 5 µM in the assay with Aβ1-40 stood at 45.7%; in the assay on Aβ1-42 it was 74%.

As to `COc1ccc(COC(=O)C2=C(C)NC3=C(C(=O)CC(C)(C)C3)C2c2ccc(O)c(OC)c2)cc1` (stereo not shown) [ST017025, (4-methoxyphenyl)methyl 4-(4-hydroxy-3-methoxyphenyl)-2,7,7-trimethyl-5-oxo-1,4,6,7,8-pentahydroquinoline-3-carboxylate], the activity at 5 µM turned out to be 30.1% with Aβ1-40 and 32.2% with Aβ1-42.

As for `CCCOc1ccccc1C1C(C(=O)OCC(C)C)=C(C)NC2=C1C(=O)CC(c1ccc(Cl)cc1)C2` (stereo not shown) [ST017026, 2-methylpropyl 7-(4-chlorophenyl)-2-methyl-5-oxo-4-(2-propoxyphenyl)-1,4,6,7,8-pentahydroquinoline-3-carboxylate], the activity at 5 µM in the assay with Aβ1-40 was determined as 40.6%; in the assay with Aβ1-42, 80.6%.

Regarding `COCCOC(=O)C1=C(C)NC2=C(C(=O)CC(c3ccccc3)C2)C1c1ccc([N+](=O)[O-])cc1` (stereo not shown) [ST017027, 2-methoxyethyl 2-methyl-4-(4-nitrophenyl)-5-oxo-7-phenyl-1,4,6,7,8-pentahydroquinoline-3-carboxylate], the activity at 5 µM in the assay on Aβ1-40 stood at 35.1%; in the assay on Aβ1-42, 82.1%.

Consider `CCOc1ccccc1C1C(C(=O)OCC(C)C)=C(C)NC2=C1C(=O)CC(c1ccc(Cl)cc1)C2` (stereo not shown) [ST017038, 2-methyipropyl 7-(4-chlorophenyl)-4-(2-ethoxyphenyl)-2-methyl-5-oxo-1,4,6,7,8-pentahydroquinoline-3-carboxylate], for which the activity at 5 µM turned out to be 42.7% in the assay with Aβ1-40 and 81.9% in the assay on Aβ1-42.

Take `COc1cc(Br)c(C2C(C#N)=C(C)NC3=C2C(=O)CC(c2ccc(Cl)cc2)C3)cc1OC` (stereo not shown) [ST017045, 4-(2-bromo-4,5-dimethoxyphenyl)-7-(4-chlorophenyl)-2-methyl-5-oxo-1,4,6,7,8-pentahydroquinoline-3-carbonitrile]: the activity at 5 µM with Aβ1-40 worked out at 42.6%; with Aβ1-42, 46%.

Consider `COc1cc(C2C(C(=O)OC3CCCCC3)=C(C)NC3=C2C(=O)CC(c2ccccc2)C3)cc(Cl)c1O` (stereo not shown) [ST017050, cyclohexyl 4-(3-chloro-4-hydroxy-5-methoxyphenyl)-2-methyl-5-oxo-7-phenyl-1,4,6,7,8-pentahydroquinoline-3-carboxylate], for which the activity at 5 µM was determined as 39.6% in the assay with Aβ1-40 and 22.2% in the assay with Aβ1-42.

Regarding `COc1ccc(COC(=O)C2=C(C)NC3=C(C(=O)CC(C)(C)C3)C2c2cc3c(cc2[NH+]([O-])O)OCO3)cc1` (stereo not shown) [ST017054, (4-methoxyphenyl)methyl 2,7,7-trimethyl-4-(6-nitro(2H-benzo[d]1,3-dioxolan-5-yl))-5-oxo-1,4,6,7,8-pentahydroquinoline-3-carboxylate], the activity at 5 µM in the assay on Aβ1-40 is 46.5%; with Aβ1-42, 9.54%.

`CCOc1cc(C2C(C(=O)OCCOC)=C(C)NC3=C2C(=O)CC(c2ccccc2)C3)cc(Br)c1O` (stereo not shown) [ST017060, 2-methoxyethyl4-(3-bromo-5-ethoxy-4-hydroxyphenyl)-2-methyl-5-oxo-7-phenyl-1,4,6,7,8-pentahydroquinoline-3-carboxylate]: the activity at 5 µM in the assay with Aβ1-40 was found to be 39%; in the assay on Aβ1-42, 61.7%.

With `COc1ccc(C2CC(=O)C3=C(C2)NC(C)=C(C(=O)OC(C)C)C3c2ccc(F)cc2)cc1` (stereo not shown) [ST017066, methylethyl 4-(4-fluorophenyl)-7-(4-methoxyphenyl)-2-methyl-5-oxo-1,4,6,7,8-pentahydroquinoline-3-carboxylate], the activity at 5 µM in the assay with Aβ1-40 is 24.9%; in the assay with Aβ1-42, 57.4%.

For `CC1=C(C(=O)OCC(C)C)C(c2ccc(Cl)cc2)C2=C(CC(c3ccc(Cl)cc3)CC2=O)N1` (stereo not shown) [ST017070, 2-methylpropyl 4,7-bis(4-chlorophenyl)-2-methyl-5-oxo-1,4,6,7,8-pentahydroquinoline-3-carboxylate], the activity at 5 µM with Aβ1-40 was determined as 55.4%; in the assay on Aβ1-42, 89.1%.

For the molecule `CCOC(=O)C1=C(C)NC2=C(C(=O)CC(c3ccc(OC)cc3)C2)C1c1ccc(OCc2ccccc2)cc1` (stereo not shown) [ST017078, ethyl 7-(4-methoxyphenyl)-2-methyl-5-oxo-4-[4-(phenylmethoxy)phenyl]-1,4,6,7,8-pentahydroquinoline-3-carboxylate], the activity at 5 µM came out at 51.8% in the assay on Aβ1-40 and 49.4% in the assay with Aβ1-42.

`CC1=C(C(=O)OCCOc2ccccc2)C(c2ccncc2)C2=C(CC(c3ccccc3)CC2=O)N1` (stereo not shown) [ST017084, 2-phenoxyethyl 2-methyl-5-oxo-7-phenyl-4-(4-pyridyl)-1,4,6,7,8-pentahydroquinoline-3-carboxylate]: the activity at 5 µM is 54.3% with Aβ1-40 and 84.7% with Aβ1-42.

`CCC(C)OC(=O)C1=C(C)NC2=C(C(=O)CC(c3ccc(Cl)cc3)C2)C1c1ccc(Cl)cc1` (stereo not shown) [ST017089, methylpropyl 4,7-bis(4-chlorophenyl)-2-methyl-5-oxo-1,4,6,7,8-pentahydroquinoline-3-carboxylate]: the activity at 5 µM amounted to 26.9% in the assay on Aβ1-40 and 82.5% in the assay with Aβ1-42.

For `CCC(C)OC(=O)C1=C(C)NC2=C(C(=O)CC(c3ccc(Cl)cc3)C2)C1c1cc(OC)c(OC)c(OC)c1` (stereo not shown) [ST017091, methylpropyl 7-(4-chlorophenyl)-2-methyl-5-oxo-4-(3,4,5-trimethoxyphenyl)-1,4,6,7,8-pentahydroquinoline-3-carboxylate], the activity at 5 µM came out at 65.7% in the assay on Aβ1-40 and 91% in the assay with Aβ1-42.

`CCc1ccc(C2C(C(=O)OC(C)CC)=C(C)NC3=C2C(=O)CC(c2ccc(OC)cc2)C3)cc1` (stereo not shown) [ST017092, methylpropyl 4-(4-ethylphenyl)-7-(4-methoxyphenyl)-2-methyl-5-oxo-1,4,6,7,8-pentahydroquinoline-3-carboxylate]: the activity at 5 µM with Aβ1-40 was found to be 41.3%; with Aβ1-42, 30.9%.

On to `CCCOc1ccc(C2C(C(=O)OC(C)CC)=C(C)NC3=C2C(=O)CC(c2ccc(Cl)cc2)C3)cc1` (stereo not shown) [ST017093, methylpropyl 7-(4-chlorophenyl)-2-methyl-5-oxo-4-(4-propoxyphenyl)-1,4,6,7,8-pentahydroquinoline-3-carboxylate], for which the activity at 5 µM in the assay with Aβ1-40 is 46.8%; in the assay on Aβ1-42 it was 95%.
